The values that follow come from patent US20240182525A1, “NOVEL BICYCLIC COMPOUND, OPTICAL ISOMER THEREOF OR PHARMACEUTICALLY ACCEPTABLE SALT THEREOF, USE THEREOF, AND PREPARATION METHOD THEREFOR” (KOREARESEARCH INSTITUTE OF BIOSCIENCE AND BIOTECHNOLOGY, priority 2021, published 2024).

In one data set the test system is C57BL/C6 mice. The data set is described as follows: Anti-obesity effect in high calorie diet mouse model. The format is in vivo. To be noted: high calorie diet + 15 mg/kg, FIG. 12. The method, then: C57BL/C6 mice were used to test the anti-obesity effect in a mouse model with respect to the compound of Chemical Formula 1 of the present invention, which is an adipogenesis-inhibiting compound. For effective evaluation of the anti-obesity model, the control group (general diet), the control group (high calorie diet), and an anti-obesity control group (high calorie diet+Chemical Formula 1 (15 mg/kg)) were compared and evaluated (FIG. 12). The mice injected with the high-calorie diet rather than the general diet gained 131% in body weight, but the mice treated with the high-calorie diet and Chemical Formula 1 (15 mg/kg) together […] 115% in body weight.

A further data set concerns MC3T3-E1 cells. The data set is described as follows: Alkaline phosphatase (ALP) staining of MC3T3-E1 cells. The conditions noted are these: 5, 10, and 20 νM, 7 days, FIG. 15. The format is cell-based, mouse. The source says: In order to analyze the effect of the compound of Chemical Formula 1 according to the present invention on ALP activity, the morphology of MC3T3-E1 cells according to the treatment with the compound of Chemical Formula 1 according to the present invention was confirmed by alkaline phosphatase (ALP) staining of the MC3T3-E1 cell line.
In the present Example, the effect of Chemical Formula 1-1 on the activity of alkaline phosphatase (ALP), which is one of the representative markers of osteoblast differentiation, was measured. MC3T3-E1 cells, which are mouse osteoblasts, were inoculated into a 96-well plate at a concentration of 5×10^3 cell/well, and incubated overnight in growth media containing alpha-minimum essential media (alpha-MEM, JBI #008-53) supplemented with 10% fetal bovine serum (FBS, Gibco #16000, USA) and 1× antibiotics (Gibco #15240062, USA). As a negative control, an alpha minimum essential medium containing 10% FBS was used. As positive controls, 100 μg/ml of ALP-activating ascorbic acid and 10 mM of β-glycerophosphate were mixed, and the positive controls were exchanged with media added with 5, 10, and 20 νM of Chemical Formula 1-1 on Day 3, and treated for 7 days. After 7 days, the media were discarded, and the cells were washed with PBS, and fixed with 10% formalin for 1 minute. […]

A further data set is described as follows: Cytotoxicity assay, 4T1. The format is cell-based. To be noted: mouse, 4T1 cells (breast cancer); 4T1, 48 hours, maximum concentration 100 μM. On the procedure: (§1) To measure the cytotoxicity of the compound represented by Chemical Formula 1 (Chemical Formula 1-1), toxicity was measured in mouse preadipocyte 3T3-L1 cell line, human malignant melanoma A375 cell line, mouse malignant melanoma B16F10 cell line, human oral cancer MDA-MB-435 cell line, mouse breast cancer 4T1 cell line, human breast cancer MCF7 cell line, human brain cancer U87MG cell line, human glioblastoma U373MG cell line, human cervical cancer HeLa cell line, mouse embryonic fibroblast (MEF) cell line, human embryonic kidney HEK293T cell line (Korea Cell Line Bank). First, 1×10^4 cells were divided into 200 μl each in a 96-well plate using Dulbecco's Modified Eagle's Medium (DMEM) supplemented with 10% fetal bovine serum (FBS), […] streptomycin, and 50 U/ml penicillin, while maintaining various cells at 37r in an atmosphere of 5% CO2. The cells were treated with the compound of Chemical Formula 1-1 of the present invention at a maximum concentration of 100 μM and cultured for 48 hours under the same culture conditions. After the incubation, the culture media were removed and the cytotoxicity test results were confirmed (Table 2 and FIG. 3 below).

The next data set in a line: Cytotoxicity assay, HeLa. The format is cell-based. The conditions noted are these: human, HeLa cells (cervical cancer), maximum concentration 100 μM. On the procedure:
as §1

Data set [1] in a line: Cytotoxicity assay, U373MG. The conditions noted are these: human, U373MG cells (glioblastoma), maximum concentration 100 μM. In kind it is cell-based. On the procedure: as §1
The nature of another data set: Cytotoxicity assay, MCF7. The format is cell-based. To be noted: human, MCF7 cells (breast cancer); MCF7, 48 hours, maximum concentration 100 μM. The method, then: as §1
The test system of data set [2] is adipogenesis-associated genes (3T3-L1 cells). The data set is described as follows: Q-PCR of adipogenesis-associated genes. The format is cell-based, mouse. The conditions noted are these: FIG. 11. The source says:
In addition, real-time polymerase chain reaction (Q-PCR) was used to confirm the expression of adipogenesis-associated genes. As a result, it was confirmed that the amount of adipogenesis induction-associated mRNA was reduced when treated with the compound of Chemical Formula 1 according to the present invention (FIG. 11).

The term IC50 denotes the concentration at which inhibition is half-maximal. Read a low IC50 as greater potency. For the compound `CC(C)CC1NC(=O)C2CCCN2C(=O)C(C(O)C(C)C)NC(=O)CNC(=O)C(C(C)O)NC(=O)C2NC(=O)C(NC(=O)/C=C/c3ccccc3C(O)C(C)O)C(C)OC(=O)C(CC(N)=O)NC(=O)C(NC(=O)C(O)NC1=O)C(O)c1ccc(O)c(c1)Oc1ccc2cc1` (stereo not drawn) [Chemical Formula 1-1], the abdominal fat weight entry in the data set on C57BL/C6 mice is “significant decrease”. Further, the liver weight entry in the data set on C57BL/C6 mice was “significant decrease”. For the same compound, the body weight in the data set on C57BL/C6 mice (high-calorie diet alone 131%) was found to be 115%. Moreover, the “alkaline phosphatase staining (ALP) positive cells” value in the data set with MC3T3-E1 cells is reported as “strongly stained in a concentration-dependent manner”. Moreover, the IC50 at 48 h in the data set “Cytotoxicity assay, 4T1” is more than 100 µM; in “Cytotoxicity assay, HeLa”, more than 100 µM; in data set [1] it was 89.5 µM; in “Cytotoxicity assay, MCF7”, more than 100 µM. Moreover, in data set [2], the “amount of adipogenesis induction-associated mRNA” value was “reduced”.
